Experimental data taken from patent publication US11414377B2, “Modulator of metabotropic and ionotropic transmembrane receptors and use thereof” (IBD THERAPEUTICS LLC, priority 2018, dated 2022).

Target: T1, TRPV1 ion channel (Homo sapiens, UniProt Q8NER1)
T1 construct: expressed in transfected cells; host or cells: CHO cells
Assay: Effect on activity of TRPV1 ion channel (Fluo-4 AM calcium)
Type: cell-based
Conditions: TRPV1 expressing CHO cells; Capsaicin 30 nM; intracellular calcium; read-out: IC50, blocker of TRPV1 ion channel
Procedure: Compound I was dissolved in DMSO to a concentration of 100 mM; then the stock solution was serially diluted with DMSO to prepare a test solution with the concentration of substance equal to 50 μM. TRPV1 expressing CHO cells were used in the experiment. At the day of the experiment, the cells were incubated with a 4 μM of a solution of fluorescent indicator Fluo-4 AM. The cells after the preincubation with Capsaicin (30 nM), the known agonist of […] ion channel, were incubated with the test compound. The activity of receptors was determined by the intracellular calcium concentration using fluorescence spectroscopy (Behrendt, H. J. et al. (2004), Br. J. Pharmacol., 141: 737-745. FINAL).

T1 sequence (Q8NER1 whole entry): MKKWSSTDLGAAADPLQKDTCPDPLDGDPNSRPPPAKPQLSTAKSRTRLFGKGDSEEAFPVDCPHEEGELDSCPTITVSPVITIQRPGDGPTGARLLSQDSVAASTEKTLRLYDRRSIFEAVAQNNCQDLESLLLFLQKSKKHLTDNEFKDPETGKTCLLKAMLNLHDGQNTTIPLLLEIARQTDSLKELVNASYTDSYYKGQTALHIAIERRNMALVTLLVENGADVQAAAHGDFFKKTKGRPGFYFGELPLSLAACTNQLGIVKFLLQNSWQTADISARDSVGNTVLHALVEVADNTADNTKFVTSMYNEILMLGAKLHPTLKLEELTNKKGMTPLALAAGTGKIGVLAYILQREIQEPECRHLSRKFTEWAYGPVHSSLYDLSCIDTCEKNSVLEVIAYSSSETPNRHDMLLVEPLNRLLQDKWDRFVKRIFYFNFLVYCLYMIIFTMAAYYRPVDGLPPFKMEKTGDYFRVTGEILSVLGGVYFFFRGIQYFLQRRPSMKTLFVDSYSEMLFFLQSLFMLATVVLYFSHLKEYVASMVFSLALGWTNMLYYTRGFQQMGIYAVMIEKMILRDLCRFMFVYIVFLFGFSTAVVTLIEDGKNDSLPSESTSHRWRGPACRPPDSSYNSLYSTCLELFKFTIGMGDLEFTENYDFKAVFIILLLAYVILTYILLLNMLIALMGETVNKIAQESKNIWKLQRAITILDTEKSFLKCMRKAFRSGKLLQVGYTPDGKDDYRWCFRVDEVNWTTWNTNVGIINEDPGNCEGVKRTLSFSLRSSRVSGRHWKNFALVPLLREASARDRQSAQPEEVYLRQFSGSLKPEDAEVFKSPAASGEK

O=C(Cc1ccc(O)cc1)N[C@@H](Cc1ccccc1)C(=O)NCCc1ccccc1 [Compound I, 2-phenylethylamide N-(p-hydroxyphenylacetyl)phenylalanine]
IC50: 51 µM
